Reference: the CheMixHub viscosity set
Values joined by “and” are separate entries in the source; they are usually repeats but may differ in a detail not shown here. Identical values can stand only once. ± gives the uncertainty stated by the source.

BrCCBr
viscosity (298.15 K, 101 kPa): 1.613 ± 0.021 mPa·s
viscosity (298.15 K, 101.33 kPa): 1.616 ± 0.019 mPa·s and 1.564 ± 0.016 mPa·s
viscosity (308.15 K, 101.33 kPa): 1.384 ± 0.016 mPa·s
viscosity (323.15 K, 101.33 kPa): 1.107 ± 0.011 mPa·s

Brc1ccccc1
viscosity (293.15 K, 101 kPa): 1.125 ± 0.019 mPa·s
viscosity (293.15 K, 101.33 kPa): 1.142 ± 0.028 mPa·s
viscosity (298.15 K, 101 kPa): 1.07 ± 0.0098 mPa·s and 1.068 ± 0.009 mPa·s
viscosity (303.15 K, 101.33 kPa): 0.985 ± 0.007 mPa·s
viscosity (313.15 K, 101.33 kPa): 0.895 ± 0.007 mPa·s
viscosity (318 K, 101.3 kPa): 0.8536 ± 0.031 mPa·s
viscosity (318 K, 101.33 kPa): 0.8536 ± 0.039 mPa·s
viscosity (318.15 K, 101 kPa): 0.7925 ± 0.021 mPa·s and 0.836 ± 0.023 mPa·s
viscosity (323.15 K, 101 kPa): 0.784 ± 0.021 mPa·s

C#Cc1ccccc1
viscosity (298.15 K, 101 kPa): 0.8829 ± 0.011 mPa·s

C1=C[C@H]2[C@@H](C1)[C@H]1C=C[C@@H]2C1
viscosity (293.15 K, 101.2 kPa): 4.463 ± 0.23 mPa·s
viscosity (298.15 K, 101.2 kPa): 3.918 ± 0.2 mPa·s
viscosity (303.15 K, 101.2 kPa): 3.456 ± 0.18 mPa·s
viscosity (308.15 K, 101.2 kPa): 3.126 ± 0.16 mPa·s
viscosity (313.15 K, 101.2 kPa): 2.81 ± 0.14 mPa·s
viscosity (318.15 K, 101.2 kPa): 2.539 ± 0.13 mPa·s

CC(=O)OCC(COC(C)=O)OC(C)=O
viscosity (298 K, 101.33 kPa): 16.31 ± 0.24 mPa·s
viscosity (303 K, 101.33 kPa): 12.62 ± 0.17 mPa·s
viscosity (308 K, 101.33 kPa): 10.03 ± 0.13 mPa·s
viscosity (313 K, 101.33 kPa): 8.12 ± 0.11 mPa·s

CC(=O)[O-].CCCC[n+]1ccn(C)c1
viscosity (298.15 K, 100 kPa): 594.8 ± 50 mPa·s
viscosity (298.15 K, 101 kPa): 441 ± 48 mPa·s
viscosity (303.15 K, 100 kPa): 399.6 ± 29 mPa·s
viscosity (313.15 K, 100 kPa): 200.1 ± 11 mPa·s
viscosity (313.15 K, 101 kPa): 154.5 ± 17 mPa·s
viscosity (314.3 K, 101 kPa): 125.7 ± 14 mPa·s and 138.3 ± 14 mPa·s
viscosity (323.15 K, 100 kPa): 111.7 ± 4.5 mPa·s

CC(C)N
viscosity (298.15 K, 101 kPa): 0.278 ± 0.002 mPa·s

CC(C)[N+](=O)[O-]
viscosity (293.15 K, 101.33 kPa): 0.771 ± 0.008 mPa·s

CC(F)(F)Cl
viscosity (293.15 K, 101 kPa): 0.2489 ± 0.0099 mPa·s
viscosity (293.35 K, 101 kPa): 0.2432 ± 0.0087 mPa·s
viscosity (293.45 K, 101 kPa): 0.2381 ± 0.0097 mPa·s
viscosity (313.15 K, 101 kPa): 0.2004 ± 0.0054 mPa·s
viscosity (313.25 K, 101 kPa): 0.2015 ± 0.0055 mPa·s
viscosity (313.35 K, 101 kPa): 0.2002 ± 0.0054 mPa·s

CCCC#N
viscosity (298.15 K, 101 kPa): 0.502 ± 0.04 mPa·s

COC(=O)CC(=O)OC
viscosity (303.15 K, 101 kPa): 1.804 ± 0.018 mPa·s

COc1ccccc1O
viscosity (303.15 K, 101 kPa): 4.45 ± 0.12 mPa·s
viscosity (308.15 K, 101 kPa): 4.138 ± 0.051 mPa·s

FC(F)C(F)(F)OCC(F)(F)C(F)(F)C(F)(F)C(F)F
viscosity (298.15 K, 101 kPa): 2.5 ± 0.11 mPa·s
viscosity (308.15 K, 101 kPa): 2.12 ± 0.09 mPa·s
viscosity (318.15 K, 101 kPa): 1.65 ± 0.07 mPa·s
viscosity (323.15 K, 101 kPa): 1.52 ± 0.07 mPa·s

Ic1ccccc1
viscosity (293.15 K, 101.33 kPa): 1.736 ± 0.041 mPa·s
viscosity (298.15 K, 101 kPa): 1.513 ± 0.041 mPa·s
viscosity (308.15 K, 101 kPa): 1.318 ± 0.036 mPa·s
viscosity (318.15 K, 101 kPa): 1.162 ± 0.031 mPa·s
viscosity (323.15 K, 101 kPa): 1.083 ± 0.029 mPa·s

Nc1cccc(Cl)c1Cl
viscosity (313.15 K, 101 kPa): 3.74 ± 0.08 mPa·s

O=C1CCCCO1
viscosity (303.15 K, 101 kPa): 2.758 ± 0.19 mPa·s
viscosity (308.15 K, 101 kPa): 2.496 ± 0.17 mPa·s
viscosity (313.15 K, 101 kPa): 2.313 ± 0.16 mPa·s
viscosity (318.15 K, 101 kPa): 2.119 ± 0.15 mPa·s

OCC(F)(F)F
viscosity (293.15 K, 101 kPa): 2.11 ± 0.04 mPa·s and 2.108 ± 0.21 mPa·s
viscosity (298 K, 101.3 kPa): 1.737 ± 0.016 mPa·s
viscosity (298.15 K, 100 kPa): 1.744 ± 0.037 mPa·s
viscosity (298.15 K, 101 kPa): 1.84 ± 0.04 mPa·s and 1.722 ± 0.045 mPa·s
viscosity (298.15 K, 101.33 kPa): 1.73 ± 0.02 mPa·s
viscosity (303 K, 101.3 kPa): 1.357 ± 0.014 mPa·s
viscosity (303.15 K, 101 kPa): 1.62 ± 0.03 mPa·s
viscosity (303.15 K, 101.33 kPa): 1.53 ± 0.02 mPa·s
viscosity (308 K, 101.3 kPa): 1.201 ± 0.013 mPa·s
viscosity (308.15 K, 101 kPa): 1.43 ± 0.03 mPa·s
viscosity (308.15 K, 101.33 kPa): 1.35 ± 0.01 mPa·s
viscosity (313 K, 101.3 kPa): 1.054 ± 0.013 mPa·s
viscosity (313.15 K, 100 kPa): 1.23 ± 0.6 mPa·s
viscosity (313.15 K, 101 kPa): 1.27 ± 0.03 mPa·s and 1.203 ± 0.12 mPa·s
viscosity (318.15 K, 100 kPa): 1.1 mPa·s
viscosity (318.15 K, 101 kPa): 1.13 ± 0.02 mPa·s
viscosity (318.15 K, 101.33 kPa): 1.09 ± 0.01 mPa·s
viscosity (323.15 K, 100 kPa): 0.99 ± 0.2 mPa·s and 0.948 ± 0.021 mPa·s
viscosity (323.15 K, 101 kPa): 1.02 ± 0.02 mPa·s and 0.963 ± 0.097 mPa·s
